From paper PMC5562790 (Scientific Reports, 2017)
Entries after “also recorded” stand apart in the source; their conditions may differ. Where two headings read alike, the source gives them in different places.

Experiments:
[1] = target: T1, S. aureus staphopain B (SspB) (Staphylococcus aureus, UniProt P0C1S6); assay: Proteolytic degradation of LL-37 by staphopain B, SDS-PAGE and MS; format: in vitro ADME; conditions: LL-37 3 μg with staphopain B 0.6 μg in 30 μl, 3 h, 37 °C; SDS-PAGE (10-20% Tricine gel), MALDI-MS
T1 construct: purchased Sigma-Aldrich
T1 sequence (P0C1S6 220-393): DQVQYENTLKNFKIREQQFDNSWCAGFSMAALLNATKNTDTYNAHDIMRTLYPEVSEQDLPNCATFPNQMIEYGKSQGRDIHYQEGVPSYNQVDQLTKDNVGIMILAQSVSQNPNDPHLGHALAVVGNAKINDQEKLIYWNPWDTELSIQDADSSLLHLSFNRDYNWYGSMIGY
Experimental: (§1) Proteolytic degradation of LL-37 and SDS-PAGE analysis (See Supplementary Methods S1).
(§2) Matrix-assisted laser desorption ionization mass spectrometry (MALDI-MS) was used for the identification of trypsin generated peptides of LL-37. A MALDI matrix solution consisting of 5 mg/ml hydroxycinnamic acid in 50% acetonitrile, 0.1% (v/v) phosphoric acid[67] was mixed with the staphopain-generated peptides. The matrix solution contained two peptide standards [des-arg-bradykinin (m/z 904.468) and ACTH 18–39 (m/z 2465.199)] that were used for internal mass calibration in every analyte/matrix position. […]
LL-37 (3 µg), was incubated with S. aureus staphopain B (0.6 µg) (Sigma-Aldrich, St. Louis, MO, USA) in a total volume of 30 µl for 3 h at 37 ° C. […] The materials were subsequently analysed on Novex®10-20% Tricine Gel (Life technologies, Carlsbad, CA, USA) under reducing conditions. […]
The NF-κB/AP-1 reporter cell line THP1-XBlue™ -CD14, derived from the human monocytic THP-1 cell line, (InvivoGen, San Diego, CA, USA) was cultured according to the manufacturer’s protocol. […] NF-κB/AP-1 activation was assessed by using QUANTI-Blue™ assay according to the instructions supplied by the manufacturer. Secreted embryonic alkaline phosphatase (SEAP) was produced by the cell line upon stimulation and assessed by a SEAP detection reagent in cell supernatants. Absorbance at 600 nm was then detected. […]

[2] = system: planktonic S. aureus (isolates from skin of patients with AD and ATCC 29213); format: cell-based, Staphylococcus aureus; conditions: summary over the tested S. aureus strains
Experimental: Measurement of the bacterial susceptibility was determined by using a modified version of the CBD method (MBEC^TM Biofilm Inoculator, Innovotech, Edmonton, Canada)[59] following the manufacturers protocol. Briefly, to establish biofilms in vitro using the CBD, 150 μl bacterial solution of 10^5 CFU/ml in 1.5% tryptic soy broth (TSB) was supplemented with 0.3% glucose and aliquoted into each well of the MBEC plate and thereafter incubated for 24 h in a rotary incubator at 37 °C and 180 rpm. This allowed the biofilm to form on the pegs. The pegs with established biofilms were then washed once in sterile PBS (200 μl/well). […]
The MIC values measured using the CBD are equivalent to MIC values obtained using the National Committee for Clinical Laboratory Standards (NCCLS) procedure. The MIC value, representing the concentration required to inhibit growth of planktonic bacteria, was determined from bacteria that were shed from the pegs when the lid of the CBD was placed in different concentrations of LL-37. […] MBECs were determined by analyzing the bacterial viability in the biofilm after 24 h of incubation at 37 °C either by reading the turbidity at 600 nm in a 96-well plate reader (Victor[3] 1420 multilabel counter, Perkin-Elmer) or by obtaining bacterial plate counts. The recorded MIC and MBEC values represent a typical result of three independent experiments.

[3] = target: T2, S. aureus staphopain A (ScpA) (Staphylococcus aureus, UniProt P81297); format: in vitro ADME; conditions: gel-electrophoresis (10-20% Tricine gel); MS detected cleavage of minor fragments
T2 construct: purchased Preparatis (Krakow, Poland)
T2 sequence (P81297 215-388): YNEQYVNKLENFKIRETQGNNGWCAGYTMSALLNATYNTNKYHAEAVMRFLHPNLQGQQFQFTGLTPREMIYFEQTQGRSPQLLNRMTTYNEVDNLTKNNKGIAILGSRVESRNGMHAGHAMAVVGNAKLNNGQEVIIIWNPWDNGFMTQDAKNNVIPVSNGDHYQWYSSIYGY
Experimental: as §1
as §2, with “position. MALDI-MS and MS/MS analyses of the samples were performed on a 4700 Proteomics Analyzer MALDI-TOF/TOF™ mass spectrometer (Applied Biosystems, Framingham, MA). Database searching was carried out using Mascot (Matrix Science) with Swissprot as the database and with a peptide mass tolerance of 50 ppm and a fragment mass tolerance of 0.2 Da.” for “position.”
labeled LL-37) and green (S. aureus cells) seen separately, and yellow representing co-existence of bacterial cells and the TAMRA-labeled LL-37 peptide. Binding of TAMRA labeled LL-37 to the S. aureus cells were present throughout the biofilm. […]
Supplementary Fig. S5. […] LL-37 was incubated with and without S. aureus ScpA and analyzed using SDS-PAGE (Novex®10-20% Tricine Gel) (a), and by mass spectrometry (b). […]

[4] = published peptide, cited from earlier work
From the text: Table 2 A selection of published peptide sequences derived from LL-37 with immune-modulating actions, and examples of their biological effects. | column: Biological activity

[5] = system: staphopain B (SspB); assay: S. aureus staphopain B (0.6 µg) (Sigma-Aldrich) in a total volume of 30 µl; conditions: 37 °C, up to 3 h

Compound: CC[C@H](C)[C@H](NC(=O)[C@H](CCCCN)NC(=O)[C@H](CCC(=O)O)NC(=O)[C@H](CCCCN)NC(=O)[C@H](CO)NC(=O)[C@H](CCCCN)NC(=O)[C@H](CCCNC(=N)N)NC(=O)[C@H](Cc1ccccc1)NC(=O)[C@H](Cc1ccccc1)NC(=O)[C@H](CC(=O)O)NC(=O)CNC(=O)[C@H](CC(C)C)NC(=O)[C@@H](N)CC(C)C)C(=O)NCC(=O)N[C@@H](CCCCN)C(=O)N[C@@H](CCC(=O)O)C(=O)N[C@@H](Cc1ccccc1)C(=O)N[C@@H](CCCCN)C(=O)N[C@@H](CCCNC(=N)N)C(=O)N[C@H](C(=O)N[C@H](C(=O)N[C@@H](CCC(N)=O)C(=O)N[C@@H](CCCNC(=N)N)C(=O)N[C@H](C(=O)N[C@@H](CCCCN)C(=O)N[C@@H](CC(=O)O)C(=O)N[C@@H](Cc1ccccc1)C(=O)N[C@@H](CC(C)C)C(=O)N[C@@H](CCCNC(=N)N)C(=O)N[C@@H](CC(N)=O)C(=O)N[C@@H](CC(C)C)C(=O)N[C@H](C(=O)N1CCC[C@H]1C(=O)N[C@@H](CCCNC(=N)N)C(=O)N[C@H](C(=O)N[C@@H](CCC(=O)O)C(=O)N[C@@H](CO)C(=O)O)[C@@H](C)O)C(C)C)[C@@H](C)CC)C(C)C)[C@@H](C)CC [LL-37]
- degradation by SspB [1]: degraded into fragments of lower molecular weight
- MIC values obtained for planktonic cells [2]: 10 to 20 µM
- degradation by ScpA [3]: did not reveal any obvious major cleavage

Compound: GDFFRKSK EKIGKEFKRI VQRIKDFLRN LVPRTES [F106, published fragment (F) derived from LL-37]
- Biological activity ([4]; ref [29]): AM, IM^2

Compound: GKEFKRI VQRIKDFLRN LVPR (GKEFKRIVQRIKDFLRNLVPR)
- Biological activity ([4]; ref [24]): AM, IM^1c,2

Compound: IGKEFKRI VQRIKDFLRN L [IG-19]
- Biological activity ([4]; ref [27], [28]): IM^1b,2,5

Compound: IGKEFKRI VQRIKDFLRN LVPRTES [IG-25]
- Biological activity ([4]; ref [27]): IM^1b,3

Compound: KSK EKIGKEFKRI VQRIKDFLRN LVPRTES [KS-30]
- Biological activity ([4]; ref [23], [25], [26]): AM, IM^3,4

Compound: LLGDFFRKSKEKIGKEFKRIV
- Biological activity ([4]; ref [24]): AM, IM^2

Compound: LLGDFFRKSKEKIGKEFKRIVQRIK [LL-25]
- Biological activity ([4]; ref [27]): IM^1b

Compound: LLGDFFRKSKEKIGKEFKRIVQRIKDFLRNL [LL-31]
- Biological activity ([4]; ref [27]): IM^1b,3

Compound: LLGDFFRKSKEKIGKEFKRIVQRIKDFLRNLVPRTES
- cleaved bond ([5]; S. aureus): E11-K12; also recorded: E16-F17; also recorded: D26-F27; also recorded: L28-R29
- fragment found ([5]; Staphylococcus aureus): LLG16, minor

Compound: RKSK EKIGKEFKRI VQRIKDFLRN L [RK-25]
- Biological activity ([4]; ref [27]): IM^1b,3

Compound: RKSK EKIGKEFKRI VQRIKDFLRN LVPRTES [F110, published fragment (F) derived from LL-37]
- Biological activity ([4]; ref [29]): AM, IM^1c,2

Compound: RKSK EKIGKEFKRI VQRIKDFLRN LVPRTES [RK-31]
- Biological activity ([4]; ref [23], [25]): AM, IM^3
